Experimental data from publication PMC6753139, “TRIM66 reads unmodified H3R2K4 and H3K56ac to respond to DNA damage in embryonic stem cells” (Nature Communications, 2019).
Changes are numbered by the printed parent chain.

Experiments:
TRIM66 965-1160 D971A = target: T1, TRIM66 965-1160 D971A (Homo sapiens, UniProt O15016, D1106A); test: ITC, point mutant; settings: 25 °C, pH 7.5, Weak binding = ITC curves cannot be fitted reliably
T1 construct: GST (N, cleaved yes); made in house; host or cells: Escherichia coli BL21 (DE3)
T1 sequence (O15016 1100-1295 D1106A): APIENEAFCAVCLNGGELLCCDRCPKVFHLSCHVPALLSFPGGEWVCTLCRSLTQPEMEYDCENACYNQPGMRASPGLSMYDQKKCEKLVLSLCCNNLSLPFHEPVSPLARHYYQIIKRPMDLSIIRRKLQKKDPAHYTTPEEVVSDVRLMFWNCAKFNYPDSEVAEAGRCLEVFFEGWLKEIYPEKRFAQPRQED
Procedure: (§1) We further investigated the role of the TRIM66 PHD-Bromodomain in safeguarding the genome. We first introduced a series of single amino acid mutations to the PHD domain at interaction interface and then performed corresponding ITC assays.
(§2) The calorimetric experiments were performed at 25 °C using a MicroCal PEAQ-ITC. The proteins were dialyzed using a buffer containing 20 mM Tris and 100 mM NaCl at pH 7.5. Lyophilized peptides were dissolved in the same buffer and adjusted to pH 7.5 prior to use. Peptide concentrations were estimated from the quantitative NMR experiments[73],[74]. ITC measurements were performed via injection of 0.7–4 mM peptide into a cell containing 0.12 mM TRIM24-PHD-Bromo, 0.05 mM TRIM33 PHD-Bromo, and 0.05 or 0.11–0.15 mM TRIM66-PHD-Bromo (or its mutants). The ITC data were subsequently analyzed using the MicroCal PEAQ-ITC analysis software.

TRIM66 965-1160 D986A = target: T2, TRIM66 965-1160 D986A (Homo sapiens, UniProt O15016, D1121A); test: ITC, point mutant; settings: 25 °C, pH 7.5, Weak binding = ITC curves cannot be fitted reliably
T2 construct: GST (N, cleaved yes); made in house; host or cells: Escherichia coli BL21 (DE3)
T2 sequence (O15016 1100-1295 D1121A): T1 sequence (O15016 1100-1295 D1106A) with A7D, D22A
Procedure: as §1, §2

TRIM66-MUT968-1160 = target: T3, TRIM66-MUT968-1160 (Homo sapiens, UniProt O15016, C1161S/C1165S/C1270S/I1224T/L1137T/M1171K/V1273N/Y1166H); test: ITC, crystallization mutant protein; assay type: binding; settings: 25 °C, 20 mM Tris, 100 mM NaCl, pH 7.5, single measurement
T3 construct: contained residues 968 to 1160 with eight mutated residues; GST (N, cleaved yes); made in house; host or cells: Escherichia coli BL21 (DE3)
T3 sequence (O15016 1103-1295 L1137T/C1161S/C1165S/Y1166H/M1171K/I1224T/C1270S/V1273N): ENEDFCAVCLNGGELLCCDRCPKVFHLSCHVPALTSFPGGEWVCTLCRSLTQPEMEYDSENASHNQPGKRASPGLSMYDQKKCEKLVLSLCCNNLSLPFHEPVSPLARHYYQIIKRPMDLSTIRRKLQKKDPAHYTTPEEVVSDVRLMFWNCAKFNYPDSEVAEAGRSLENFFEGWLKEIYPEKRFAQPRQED
Procedure: The mutant protein of the TRIM66 PHD-Bromodomain used for the crystallographic study contained residues 968 to 1160 with eight mutated residues (L1002T, C1026S, C1030S, Y1031H, M1036K, I1089T, C1135S, and V1138N). The mutant protein was dialyzed using a buffer containing 20 mM Tris, 100 mM NaCl, and 5 mM DTT at pH 7.5 prior to the crystallographic study. The H3_1-12 peptide was dissolved in the same buffer and adjusted to pH 7.5 with a final concentration of 20 mM. Crystals of the free-state TRIM66-PHD-Bromo mutant were obtained by mixing 8 mg ml^−1 protein with an equal volume of crystallization buffer (30% w/v 5000 MME, 100 mM Tris base/hydrochloric acid pH 8.0, and 200 mM lithium sulfate) using the hanging drop vapor diffusion method at 20 °C. […]
The calorimetric experiments were performed at 25 °C using a MicroCal PEAQ-ITC. […] Peptide concentrations were estimated from the quantitative NMR experiments[73],[74]. […] The ITC data were subsequently analyzed using the MicroCal PEAQ-ITC analysis software. […]
combinational manner (Fig. 1d). To further figure out the binding mode between the TRIM66 PHD-Bromodomain and the united H3(1-15)-(48-57) K56ac peptide, we performed a NMR titration experiment and carefully analyzed the linewidth changes of TRIM66 -GSGS968-1160 (this protein is […]

C[C@H](N)C(=O)N[C@@H](CCCNC(=N)N)C(=O)N[C@H](C(=O)N[C@@H](CCCCN)C(=O)N[C@@H](CCC(N)=O)C(=O)N[C@H](C(=O)N[C@@H](C)C(=O)N[C@@H](CCCNC(=N)N)C(=O)N[C@@H](CCCCN)C(=O)N[C@@H](CO)C(=O)N[C@H](C(=O)NCC(=O)O)[C@@H](C)O)[C@@H](C)O)[C@@H](C)O [H3_1-12]
KD (TRIM66 965-1160 D971A): Weak binding
KD (TRIM66 965-1160 D986A): Weak binding
Kd (TRIM66-MUT968-1160): 19 ± 0.76 µM
